# Measurements published in patent publication US20190274300A1, “PRESERVATIVE SOLUTION FOR LIVE CELLS OR COMPOSITION CONTAINING LIVE CELLS” (TERUMO KABUSHIKI KAISHA, priority 2016, published 2019).
# System: sheet-shaped human skeletal myoblast cell culture
# Experiment: Cell survival rate confirmation test: sheet-shaped cell culture kept refrigerated in preservative solution, PI staining, flow cytometry
# Assay type: cell-based
# Conditions: 2° C. to 8° C.
# Experimental: The sheet-shaped cell cultures were prepared using skeletal myoblast cells (with fibroblast cells contained therein) prepared from a human skeletal muscle by a usual or known method. A cell mixture of human skeletal myoblast cells and human fibroblast cells suspended in a 20% human serum-containing DMEM/F12 medium (Thermo Fisher Scientific Inc.) was seeded at 3.7×10^6 cells/well on a temperature-responsive culture dish (UpCell® 12 well Multi-well, CellSeed Inc.), and was then subjected to the sheet-formation cultivation at 37° C. under 5% CO2 for 12 to 26 hours. After the sheet-formation cultivation, the medium was removed, 700 μL of HBSS (+) (Thermo Fisher Scientific Inc.) which was chilled to 4° C. was added, and then the resultant was left to stand for 10 minutes. Then, gentle pipetting was conducted such as to detach the sheet-shaped cell culture completely.
# After the sheet-shaped cell culture was completely detached, HBSS (+) was removed, and a fresh supply of room-temperature HBSS (+) was added to conduct rinsing. Such a washing step was repeated four times.
# The sheet-shaped cell culture left to stand under the refrigerated conditions in (1) above was put to measurement of cell survival rate. After the sheet-shaped cell culture left to stand in the preservative solution for a predetermined period was dissociated with a trypsin-like protease, the cells were dispensed into a FACS tube to be 3.5×10^5 cells, followed by centrifugation, and the supernatant was discarded. To the resultant was added 3 ml of 0.5% BAS-containing PBS solution, and, after rinsing the cells by vortex, centrifugation was conducted, the supernatant was removed, and 500 μL of a propidium iodide (PI, Becton Dickinson) prepared to a final concentration of 0.6 μg/mL by use of a 0.5% BSA-containing PBS solution was added and mixed. Immediately after the mixing, the mixture was put to reaction at room temperature under a light shielding condition for approximately five minutes. After the reaction, a 0.5% BSA-containing PBS solution was added, the cells were rinsed by vortex, followed by centrifugation, then the supernatant was removed, 500 μL of a 0.5% BSA-containing PBS solution was added, and the resultant was put to an analysis. The analysis was conducted using a flow cytometer (Becton Dickinson), and the proportion of PI-unstained cells contained in the whole cells admixed with PI was measured. […]
# As a control, a DMEM medium (Thermo Fisher Scientific Inc.) was used.
molecule,measurement,setting,value
"CC1=NN(c2ccccc2)C(=O)C1 [edaravone, 3-methyl-1-phenyl-2-pyrazolin-5-one]",cell survival rate,"1 μM edaravone in physiological saline solution, five days",approximately 95%
same,cell survival rate as compared to the case of no addition of edaravone,"1 μM or 10 μM edaravone in physiological saline solution, five days",increased
same,cell survival rate,"10 μM edaravone in physiological saline solution, five days",approximately 97%
same,"lowering in the number of live cells from three days to seven days of preservation, compared to edaravone-nonadded HBSS (+)",100 μM edaravone in HBSS (+),restrained
same,cell survival rate as compared to HBSS (+) not admixed with edaravone,"100 μM edaravone in HBSS (+), three days to seven days",higher cell survival rate
"O=C1O[C@H]([C@@H](O)CO)C(O)=C1O [vitamin C, ascorbic acid]",cell survival rate,"0.2 mM vitamin C in physiological saline solution, three days",approximately 63%
same,cell survival rate,"2 mM vitamin C in physiological saline solution, three days",approximately 85%
tocopherol [vitamin E],cell survival rate,"10 μM vitamin E in physiological saline solution, three days",approximately 65%
same,cell survival rate,"100 μM vitamin E in physiological saline solution, three days",approximately 65%
